In series [1] the target is T1, hCCR3 (Homo sapiens, UniProt P51677).
T1 construct: expressed in transfected cells; host or cells: K562 and RBL2H3 cells
T1 sequence (P51677 1-355): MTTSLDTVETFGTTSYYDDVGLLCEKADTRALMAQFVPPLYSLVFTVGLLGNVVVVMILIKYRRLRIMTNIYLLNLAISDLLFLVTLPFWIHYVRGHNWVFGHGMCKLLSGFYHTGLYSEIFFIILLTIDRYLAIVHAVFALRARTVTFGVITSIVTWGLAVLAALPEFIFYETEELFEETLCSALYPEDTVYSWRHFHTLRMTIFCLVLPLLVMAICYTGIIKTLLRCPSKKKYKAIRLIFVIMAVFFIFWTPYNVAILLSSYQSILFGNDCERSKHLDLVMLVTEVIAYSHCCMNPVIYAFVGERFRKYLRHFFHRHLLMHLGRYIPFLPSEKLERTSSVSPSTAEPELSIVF
The experiment in a line: Ca2+ mobilization in hCCR3-RBL and hCCR3 K562 cells (test B). In kind it is cell-based. The method, then: B.) Investigation of Ca^2+ Mobilization in hCCR3-RBL and hCCR3 K562 Cells
HCCR3-K562 and hCCE3-RBL2H3 cells in 40,000 cells/well density (number of cells in one well of the microplate) are cultured for 24 hours. The cells are washed and loaded with calcium indicator dye (Calcium Plus assay Kit, Molecular Devices). The cells are incubated in the presence of the dye for 60 minutes while loading takes place. The dye is a fluorescent calcium indicator, which sensitively indicates the intracellular calcium concentration. The intracellular calcium concentration is in direct ratio with the fluorescent signal of the sample. The experiments are performed in a BMG NOVOSTAR apparatus, at […].
The selective agonists used in the experiments are:
In the experiments an agonist concentration is used which causes a 75% calcium signal compared to the maximum attainable signal.
Antagonists are added 15 minutes before the agonist treatment.
The change of the fluorescent signal is monitored for 30 seconds, during that period the process takes place.
The intensity of the maximum calcium signal following the addition of the agonist is compared with the calcium signal obtained after the addition of the same agonist, but in the presence of the inhibitor.
The activity of the compounds is characterized with the IC50 values.

[2] abbreviates: test B, inhibition of agonist-induced calcium signal in hCCR3-K562 / hCCR3-RBL2H3 cells, antagonist added 15 minutes before agonist, read-out: IC50.

Read-outs that look alike come from different tables or passages of the source.

Molecule `O=C(CCc1nc2nc(N3CCCC3)ccc2s1)NCCC[N+]1([O-])CCCC1c1ccc(Cl)c(Cl)c1` (centres unmarked) showed a melting point of 185 to 188 °C. `CCNC(=O)N[N+]1(CCCNC(=O)CCc2nc3nc(N4CC(C)OC(C)C4)ccc3s2)CCCC1c1ccc(Cl)c(Cl)c1.Cl` (centres unmarked) returned a melting point of 115 to 118 °C. Take `Cc1ccc2nc(CCC(=O)NCCCN3CCCC3c3ccc(Cl)c(Cl)c3)sc2n1` (centres unmarked): the melting point was 125 to 130 °C. `Cc1ccc2nc(CCC(=O)NCCCN3CCCC3c3ccc(Cl)c(Cl)c3)sc2c1` (centres unmarked): the melting point lay in the range of 76 to 79 °C. For “1-(Acetylamino)-2-(3,4-dichlorophenyl)-1-(3-{[3-(5-piperidin-1-yl[1,3]thiazolo[4,5-b]pyridin-2-yl)propanoyl]amino}propyl)pyrrolidinium hydrochloride [Example 23]”, the IC50 in series [1] (setting [2]) was 13 nM.

On to “1-Amino-2-(3,4-dichlorophenyl)-1-(3-{[3-(5-pyrrolidin-1-yl[1,3]thiazolo[4,5-b]pyridin-2-yl)propanoyl]amino}propyl)pyrrolidinium tosylate [Example 14]”, for which, in series [1] (setting [2]), the IC50 is 1 nM. On to `CNc1ccc2nc(CCC(=O)NCCCN3CCCC3c3ccc(Cl)c(Cl)c3)sc2n1` (centres unmarked) [Example 2, N-{3-[2-(3,4-dichlorophenyl)pyrrolidin-1-yl]propyl}-3-(5-(methylamino)[1,3]thiazolo[5,4-b]pyridin-2-yl)propionamide], for which the melting point is 119 to 121 °C. 18 nM corresponded to half-maximal inhibition in series [1] (IC50). Turning to `O=C(CCc1nc2ccc(N3CCCC3)nc2s1)NCCCN1CCCC1c1ccc(Cl)c(Cl)c1` (centres unmarked) [Example 3, N-{3-[2-(3,4-dichlorophenyl)pyrrolidin-1-yl]propyl}-3-(5-pyrrolidin-1-yl[1,3]thiazolo[5,4-b]pyridin-2-yl)propionamide], the melting point was in the range of 137 to 138 °C. In addition, the IC50 in series [1] was 5 nM.

In the case of `O=C(CCc1nc2ccc(N3CCCCC3)nc2s1)NCCCN1CCCC1c1ccc(Cl)c(Cl)c1` (centres unmarked) [Example 4, N-{3-[2-(3,4-dichlorophenyl)pyrrolidin-1-yl]propyl}-3-(5-piperidin-1-yl[1,3]thiazolo[5,4-b]pyridin-2-yl)propionamide], the melting point is 93 to 95 °C. Further, the IC50 in series [1] is 3.4 nM. Turning to `O=C(CCc1nc2ccc(N3CCOCC3)nc2s1)NCCCN1CCCC1c1ccc(Cl)c(Cl)c1` (centres unmarked) [Example 5, N-{3-[2-(3,4-dichlorophenyl)pyrrolidin-1-yl]propyl}-3-(5-morpholin-4-yl[1,3]thiazolo[5,4-b]pyridin-2-yl)propionamide], the melting point fell in the range of 111 to 112 °C. In series [1], this molecule returned an IC50 of 0.9 nM. Regarding `O=C(CCc1nc2ncc(N3CCCCC3)nc2s1)NCCCN1CCCC1c1ccc(Cl)c(Cl)c1` (centres unmarked) [Example 9], the melting point stood at 105 °C. Also, in series [1], the IC50 amounted to 3.9 nM. For the molecule `CC1CN(c2ccc3nc(CCC(=O)NCCCN4CCCC4c4ccc(Cl)c(Cl)c4)sc3n2)CC(C)O1` (centres unmarked) [Example 11, N-{3-[2-(3,4-dichlorophenyl)pyrrolidin-1-yl]propyl}-3-(5-(2,6-dimethylmorpholin-4-yl)[1,3]thiazolo[5,4-b]pyridin-2-yl)propionamide], half-maximal inhibition in series [1] (IC50) required 1.6 nM.

The molecule `O=C(CCc1nc2ccc(N3CCCCC3)nc2s1)NCCC[N+]1([O-])CCCC1c1ccc(Cl)c(Cl)c1` (centres unmarked) [Example 20] showed a melting point of 185 to 187 °C. The IC50 in series [1] is 13 nM. On to “N-{3-[2-(3,4-dichlorophenyl)-1-oxidopyrrolidin-1-yl]propyl}-3-(5-morpholin-4-yl[1,3]thiazolo[4,5-b]pyridin-2-yl)propionamide [Example 21]”, for which the IC50 in series [1] (setting [2]) came out at 82.5 nM.

Source of the values: patent publication US8420636B2, “Pyrrolidinyl-alkyl-amide derivatives, their preparation, and their therapeutic application as CCR3 receptor ligands” (Sanofi, priority 2008, dated 2013).
